# In paper PMC8777946, “New Analogs of Polyamine Toxins from Spiders and Wasps: Liquid Phase Fragment Synthesis and Evaluation of Antiproliferative Activity” (Molecules, 2022):
# Where two headings read alike, the source gives them in different places.
# Assays:
# [1] = tested on: MDA-MB-231 breast cancer cells; assay: Antiproliferative activity on MDA-MB-231 breast cancer cells (24 h, cell count or MTT); assay type: cell-based; details: for IC50: read-out: IC50 MDA-MB-231; for times less cytotoxic to the MDA-MB-231 cells than the MCF-7 cells: ratio of IC50 values
# Description: (§1) The antiproliferative activity of the synthesized compounds was evaluated using MCF-7 and ΜDA-MB-231 breast carcinoma cells. MCF-7 cells are characterized by epithelial morphology, low metastatic potential, and low aggressiveness, and are estrogen receptor alpha (ERα)-positive, whereas MDA-MB-231cells are characterized by mesenchymal morphology, high metastatic potential, and high aggressiveness, and are ERβ-positive. The cells were treated for 24 h with compounds 1–10 in a range of concentrations, from 0 to 200 or 400 μM. In addition, the cells were treated with acid 21 alone and an equimolar mixture of acid 21 and Spd (the PA substructure of conjugate 2), to determine the effect of conjugation on the antiproliferative activity. The estimated IC50 values for these compounds are provided in Table 1 (see also Supplementary Material, Table S1). For the sake of comparison, the ΙC50 values of PATs HO-416b and Agel 416, determined previously, are included in Table 1. Calculated LogD values at pH 7.4, the physiological pH of blood serum, using ChemAxon’s Chemicalize platform are also included in Table 1.
# (§2) MCF-7 and MDA-MB-231 breast cancer cell lines were purchased from the American Type Culture Collection (ATCC). All cells were routinely cultured in a humidified 95% air/5% CO2 incubator at 37 °C in complete medium Dulbecco’s Modified Eagle’s Medium (DMEM) supplemented with 10% (v/v) fetal bovine serum (FBS) 1.0 mM sodium pyruvate, 2 mM l-glutamine, and 100 IU/mL penicillin. The synthesized compounds were dissolved in ddH2O (or DMSO for compound […] and the equimolar mixture of compounds […] and Spd) at a final concentration of 10 mM and further dilutions were conducted with culture medium.
# (§3) MCF-7 and ΜDA-MB-231 breast cancer cells were seeded in 12-well plates and were allowed to grow up to 60–70% confluence. After renewing the culture medium, cancer cells were treated for 24 h in serum-containing culture medium with compounds 1–10 in a range of concentrations, from 0 to 200 or 400 μM. In addition, cells were treated with acid 21 alone and an equimolar mixture of acid 21 and Spd in order to determine the effect of conjugation on the antiproliferative activity. Then, the surviving breast cancer cells were measured, either manually (for compounds Agel 416, HO-416b, 1-3, 6-7) or by measuring the absorbance following an MTT assay (for compounds 4-5, 8-10, 21 and 21+Spd), as described below in detail. The percentage of live cells was plotted against the log values of compound concentrations, and a non-linear fit plot was used to estimate the IC50 value for each compound.
# [2] = tested on: MCF-7 breast cancer cells; assay: Antiproliferative activity on MCF-7 breast cancer cells (24 h, cell count or MTT); assay type: cell-based; details: for IC50: read-out: IC50 MCF-7
# Description: as §1, §2, §3
# [3] = tested on: MCF-7 breast cancer cells; details: 24 h treatment; ± SD; reference PATs, determined previously; cited from earlier work
# [4] = tested on: MDA-MB-231 breast cancer cells; details: 24 h treatment; ± SD; reference PATs, determined previously; cited from earlier work
# in vitro = assay type: cell-based; details: human, 24 h, MTT, read-out: % viability of MCF 12A
# Description: (§4) The IC50 values of the tested compounds are summarized in Table 2 (see also Supplementary Material, Table S2).
# (§5) […]. The chemical compounds were reconstituted in DMSO.
# (§6) For the MTT [3-(4,5-dimethylthiazol-2-yl)-2,5-diphenyltetrazolium bromide] assay, cells were seeded in a 96-well plate (26.000 cells/well) for 48 h. Then, after overnight starvation through serum deprivation, cells were incubated for 24 h, with the chemical compounds at 100, 10, 1, and 0.1 μM concentrations in the MCF-12A culture medium deprived of serum. Next, MTT (5 mg/mL in sterile PBS) was added in an amount of 10% in the culture media volume for 4-h cell incubation at 37 °C. Subsequently, an MTT solubilization solution was added, in an amount equal to the original culture media volume (100 μL/well), and the formazan crystals were dissolved through thorough pipetting. The spectrophotometric measure of cells’ viability was performed in a Tecan (SPARK) spectrophotometer at an absorbance wavelength of 570 nm. Incubation with H2O2 was established as cytotoxicity positive control. The percentage of viability for each sample was calculated with respect to cells incubated with MCF-12A culture media (without serum) containing 2% DMSO (negative cytotoxicity control).
# [5] = tested on: MCF-12A normal epithelial mammary cells; assay: cells; assay type: cell-based; details: for IC50: Homo sapiens, MCF-12A, 24 h incubation, serum-free medium, MTT; for selectivity index (SI) for the MCF-7 cells: IC50 MCF-12A versus IC50 MCF-7; for selectivity index (SI) for the MDA-MB-231 cells: IC50 MCF-12A versus IC50 MDA-MB-231
# Description: as §4, §5, §6
# [6] = Homo sapiens, MDA-MB-231, 24 h, 24 h treatment, serum-containing medium, manual count (1-3, 6-7) or MTT (4-5, 8-10, 21, 21+Spd), ± SD, tested as trifluoroacetate salts
# [7] = Homo sapiens, MCF7, 24 h, 24 h treatment, serum-containing medium, manual count (1-3, 6-7) or MTT (4-5, 8-10, 21, 21+Spd), ± SD, tested as trifluoroacetate salts
# [8] = 24 h treatment, serum-containing medium, manual count (1-3, 6-7) or MTT (4-5, 8-10, 21, 21+Spd), ± SD, tested as trifluoroacetate salts
smiles,measurement,setting,value
CCCC(=O)N[C@H](C(=O)NCCCNCCCCNCCCN)[C@@H](C)O [Compound 5],IC50,[1]; [6],> 400 µM
same,IC50,[2]; [7],> 400 µM
NCCCCNC(=O)Cc1c[nH]c2ccccc12 [Compound 3],IC50,[1]; [8],107 µM
same,IC50,[1]; [6],170 µM
same,IC50,[2]; [8],272 ± 11.2 µM
same,IC50,[2]; [7],272 µM
CCCC(=O)N[C@@H](Cc1ccc(O)cc1)C(=O)NCCCCNCCCCNCCCCN [Compound 7],IC50,[1]; [6],> 400 µM
same,IC50,[2]; [7],> 400 µM
C#CC[C@H](NC(=O)c1ccc(C2(C(F)(F)F)N=N2)cc1)C(=O)NCCCNCCCNCCCCN [Compound 10],IC50,[1]; [6],> 200 µM
same,IC50,[2]; [7],2.81 ± 1.64 µM
NCCCNCCCNCCCNCCCCNC(=O)Cc1c[nH]c2ccccc12 [HO-416b],times less cytotoxic to the MDA-MB-231 cells than the MCF-7 cells,[1],~44 times
same,IC50,[3],0.09 ± 0.012 µM
same,IC50,[4],3.98 ± 0.064 µM
same,times more cytotoxic than Agel 416,[2]; MCF-7 cells,~6 times
same,viability,in vitro; 0.1 μΜ,92.5%
same,viability,in vitro; 1 μΜ,89.7%
same,viability,in vitro; 10 μΜ,77.5%
same,viability,in vitro; 100 μΜ,50.8%
same,IC50,[5],97.2 µM
same,selectivity index (SI) for the MCF-7 cells,[5],~1080
same,selectivity index (SI) for the MDA-MB-231 cells,[5],~24
same,times more cytotoxic than Agel 416,[5]; MCF-12A cells,~1.9 times
NCCCNCCCCNCCCNCCCNC(=O)Cc1c[nH]c2ccccc12 [Agel 416],times less cytotoxic to the MDA-MB-231 cells than the MCF-7 cells,[1],6 times
same,IC50,[3],0.55 ± 0.02 µM
same,IC50,[4],3.31 ± 0.08 µM
same,viability,in vitro; 0.1 μΜ,95.4%
same,viability,in vitro; 1 μΜ,84.3%
same,viability,in vitro; 10 μΜ,63.5%
same,viability,in vitro; 100 μΜ,69%
same,IC50,[5],184 µM
same,selectivity index (SI) for the MCF-7 cells,[5],~335
same,selectivity index (SI) for the MDA-MB-231 cells,[5],~56
CCCC(=O)N[C@H](C(=O)NCCCCNCCCNCCCN)[C@@H](C)O [Compound 4],IC50,[1]; [6],> 400 µM
same,IC50,[2]; [7],> 400 µM
C#CC[C@H](NC(=O)c1ccc(C2(C(F)(F)F)N=N2)cc1)C(=O)NCCCCNCCCNCCCN [Compound 9],IC50,[1]; [6],> 200 µM
same,IC50,[2]; [7],2.63 ± 1.58 µM
NCCCNCCCCNC(=O)Cc1c[nH]c2ccccc12 [Compound 2],IC50,[1]; [6],12.6 ± 0.57 µM
same,times less active than HO-416b,[1]; MDA-MB-231 cells,4 times
same,times more active than the mere combination of 21 and Spd,[1]; MDA-MB-231 cells,~22 times
same,IC50,[2]; [7],3.15 ± 0.25 µM
same,times less active than HO-416b,[2]; MCF-7 cells,35 times
same,times more active than the mere combination of 21 and Spd,[2]; MCF-7 cells,~42 times
"O=C(O)Cc1c[nH]c2ccccc12 [Compound 21, (indol-3-yl)acetic acid, reference compound]",IC50,[1]; [6],262 ± 42 µM
same,IC50,[2]; [7],366 ± 73 µM
CCCC(=O)N[C@@H](Cc1ccc(O)cc1)C(=O)NCCCCNCCCNCCCNCCCN [Compound 8],IC50,[1]; [6],> 400 µM
same,IC50,[2]; [7],> 400 µM
NCCCNCCCCNCCCNC(=O)Cc1c[nH]c2ccccc12 [Compound 1],IC50,[1]; [6],> 200 µM
same,IC50,[2]; [7],> 200 µM
CCCC(=O)N[C@@H](Cc1ccc(O)cc1)C(=O)NCCCNCCCCNCCCN [Compound 6],IC50,"[1]; Homo sapiens, MDA-MB-231, 24 h",> 400 µM
same,IC50,"[2]; Homo sapiens, MCF7, 24 h",> 400 µM
